Consider five compounds from patent publication US20030094251A1, “Enhancing laccase activity using pro-oxidants and pro-degradants” (priority 2001, published 2003).

For one experiment, the system named is laccase. As to the kind of experiment: Chicago Blue assay: mediator-enhanced laccase-catalyzed bleaching of Chicago Blue in solution. The conditions noted are these: decrease in absorbance of Chicago Blue at 610 nm after 3 min, mediator (0.1 umole/ml); for ΔmA610 (3 min) at pH 5.5: pH 5.5, laccase; for ΔmA610 (3 min) at pH 7.0: pH 7.0, laccase. Type of experiment: biochemical, Aspergillus. The protocol:
In this example, the pro-oxidants and pro-degradants were tested individually as mediators to enhance laccase-catalyzed bleaching of Chicago Blue in solution. The Chicago Blue Dye, also known as Direct Blue 1 or DB1, is a commonly used assay for the oxidative efficiency of laccase. The Chicago Blue Dye is fully described by Schneider et al. in U.S. Pat. No. 5,885,304, which is hereby incorporated by reference.
Each of the compounds (i.e., potential mediators) was dissolved in water, or in ethanol if the potential mediator was not water soluble, and then mixed with a phosphate buffer and a Chicago Blue solution. A solution of a laccase was added to make up 1 ml of the final solution, containing […] mediator, 20 mM buffer at pH 5.5 or 7.0, 0.1-1% laccase (v/v) and Chicago Blue solution, with absorbance at A610 nm between 0.6 to 0.8. The change in the absorbance at A610 nm was measured immediately using a UV-VIS spectrophotometer (UV-1201, Shimadzu Scientific Instruments) after the enzyme was added. The decrease in absorbance was recorded at 30-second intervals for 5 minutes and was used to estimate the efficiency of the mediator.

The next experiment has as its system laccase (NS51003). As to the kind of experiment: Pulp bleaching with laccase and mediators, delignification measured as change in Kappa number (TAPPI T236 cm-85). Also on record: species or system Aspergillus. The protocol: Delignification of the pulp was measured as the change in Kappa number according to TAPPI method T236 cm-85. Briefly, a known mass of paper pulp (containing lignin) was reacted with an excess of potassium permanganate in acid solution for a specified period of time to oxidize the lignin. After the reaction, the residual permanganate was determined by titration. The Kappa number was defined as the volume (ml) of 0.1N potassium permanganate consumed by 1 g of moisture-free pulp in 0.5N sulfuric acid after a ten-minute reaction time at 25° C. under conditions such that one-half of the permanganate remains unreacted. A linear relationship with the lignin content of the pulp and the measurement of the Kappa number has been done on samples as low as 300 mg of pulp.
A softwood Kraft pulp, Kappa number 31.0, was treated with a laccase (NS51003) under the following conditions:
The dried pulp was added to 80 ml of 50 mM phosphate, pH 5.5, and disintegrated in a blender. The pulp was then transferred to a 500-ml conical flask and the blender was washed with 20 ml of the same buffer. The washed buffer and the pulp were combined. The mediator was added at 1-4% (w/w, based on the dry pulp) followed by the addition of the laccase. The pH of the pulp mixture was adjusted to 5.5 if needed. […]
The delignification of the pulp was measured as the change in the Kappa number according to TAPPI method T236 cm-85.

For the compound `O=C1O[C@H]([C@@H](O)CO)C(O)=C1O` [Ascorbic acid, ascorbic acid], in the experiment on laccase, the “ΔmA610 (3 min) at pH 5.5” value is reported as 6 and the “ΔmA610 (3 min) at pH 7.0” value is reported as 2.

On to `On1nnc2ccccc21` [HBT, 1-hydroxybenzotriazole, reference compound], for which, in the experiment with laccase (NS51003) (0.1 ml of the 51003 laccase with the mediator), the “Kappa number reduction (in words)” value is “modest Kappa number reduction”. With `O=C(O)c1cccnc1` [Nicotinic acid, nicotinic acid], in the experiment with laccase, the “ΔmA610 (3 min) at pH 5.5” value came to 0 and the “ΔmA610 (3 min) at pH 7.0” value is recorded as 0. Turning to `O=C(O)c1ccccc1O` [Salicylic acid, salicylic acid], the “ΔmA610 (3 min) at pH 5.5” value with laccase came out at 11.

For the compound `NC(N)=O` [Urea, urea], the “activity in enhancing bleaching (in words)” value in the experiment on laccase (NS51003) (pulp bleaching with laccase, Examples 2-6) is “barely active”. Besides, in the experiment with laccase, the “ΔmA610 (3 min) at pH 5.5” value was determined as 1 and the “ΔmA610 (3 min) at pH 7.0” value stood at 0.
